Results on three compounds are retold here after PubChem BioAssay (NCI).

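Growth conditions: 96-well plates. Treatment: test compound, 48 hours, 5 concentrations. Analysis: linear interpolation between bracketing concentrations; unreached endpoints set to highest concentration. Here, GI50 denotes the concentration required for 50% inhibition of growth. At the TGI there is no net growth.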

Some test systems named below: A498 renal; KM12 colon; M14 melanoma; MDA-MB-435; MOLT-4 leukemia; NCI-H460 lung; OVCAR-4 ovarian; TK-10 renal; U251 CNS; UO-31 renal.
Assay in all cases: growth of human tumour cells (NCI), 48 h

Take `Nc1ccccc1C#C/C=C\C#Cc1c(F)c(F)c(F)c(F)c1F`: the GI50 was 25.5 µM with A498 renal; 16.2 µM in the test with KM12 colon; 15 µM with M14 melanoma; 14.9 µM in the test with MDA-MB-435; 1.76 µM in the test with MOLT-4 leukemia; 24.4 µM in the test on NCI-H460 lung. Also, the GI50 was 20.2 µM in the test with OVCAR-4 ovarian, 20.1 µM with TK-10 renal, 13 µM in the test with U251 CNS and 14.6 µM in the test with UO-31 renal. Besides, the TGI in the test on A498 renal was 55.8 µM; in the test with KM12 colon it was 37.7 µM; in the test on M14 melanoma, 29.4 µM; in the test on MDA-MB-435 it was 31.7 µM; in the test on MOLT-4 leukemia it was 34.8 µM; in the test on NCI-H460 lung it was greater than 100 µM. Besides, the TGI in the test on OVCAR-4 ovarian was found to be 96 µM; in the test with TK-10 renal, 40.7 µM; with U251 CNS, 25.7 µM; in the test with UO-31 renal it was 28 µM.
On to `O=C(NCc1ccco1)c1cccc(NC2=C(Cl)C(=O)N(Cc3ccccc3)C2=O)c1`, for which the GI50 in the test with A498 renal was 17.2 µM; with KM12 colon it was 6.49 µM; with M14 melanoma, 11.7 µM; in the test on MDA-MB-435, 2.33 µM; with MOLT-4 leukemia, 5.19 µM; in the test on NCI-H460 lung, 92.3 µM. Further, the GI50 in the test on OVCAR-4 ovarian is 6.74 µM; in the test on TK-10 renal, 3.54 µM; in the test on U251 CNS it was 11.5 µM; in the test with UO-31 renal it was 3.24 µM. Besides, the TGI was 50.8 µM in the test on A498 renal; 24.5 µM in the test with KM12 colon; 24.6 µM with M14 melanoma; 7.39 µM in the test on MDA-MB-435; greater than 100 µM in the test on MOLT-4 leukemia; greater than 100 µM in the test on NCI-H460 lung. Besides, the TGI in the test with OVCAR-4 ovarian worked out at 64.3 µM; in the test on TK-10 renal, 9.18 µM; in the test on U251 CNS it was 60.5 µM; in the test on UO-31 renal, 18.6 µM.
Consider `COc1cccc2c1C(=O)OC2c1cccc2ccccc12` (stereo not given), for which the TGI in the test with A498 renal, in the test on KM12 colon, with M14 melanoma, in the test with MDA-MB-435, in the test on MOLT-4 leukemia and with NCI-H460 lung was greater than 100 µM throughout. Besides, the TGI in the test on OVCAR-4 ovarian is greater than 88.7 µM; with TK-10 renal it was greater than 100 µM; in the test on U251 CNS, greater than 100 µM; with UO-31 renal, greater than 100 µM.
